Data as given in US9334273B1, “Efficient and stereoselective synthesis of 2′-fluoro-6′-methylene-carbocyclic adenosine (FMCA)” (UNIVERSITY OF GEORGIA RESEARCH FOUNDATION, INC., priority 2014, dated 2016).

Tests used:
[1] = system: entecavir resistant triple mutant (L180M+M204V+S202G) HBV; conditions: cited from earlier work; for EC50: in vitro, entecavir resistant triple mutant (L180M+M204V+S202G)
[2] = system: HBV wild type as well as resistant mutants; conditions: both wild type as well as resistant mutants; cited from earlier work

SMILES | EC50 [1] | melting point | anti-HBV efficacy [2] | fold less effective against the mutant in comparison to wild type ([1]; triple mutant (L180M+M204V+S202G) vs wild type)
C=C1[C@@H](n2cnc3c(N)ncnc32)C(F)C(O)[C@H]1CO (single isomer, unassigned; (+)) [FMCA, (+)-9-[(1′R, 2′R, 3′R, 4′R)-2′-Fluoro-3′-hydroxy-4′-(hydroxymethyl)-5′-methylenecyclo-pentan-1′-yl]-adenine] | 670 nM | 215 to 218 °C (dec.) | demonstrated the anti-HBV efficacy | –
C=C1C(COP(=O)(N[C@@H](C)C(=O)OC)Oc2ccccc2)C(O)C(F)C1n1cnc2c(N)ncnc21 (stereo partly drawn) [FMCAP] | 54 nM | – | demonstrated the anti-HBV efficacy | –
C=C1[C@H](CO)[C@@H](O)C[C@@H]1n1cnc2c(=O)[nH]c(N)nc21 [entecavir, reference compound] | – | – | – | 150 fold
